Results taken from patent US11613531B2, “Inhibitors of RHO associated coiled-coil containing protein kinase” (Kadmon Corporation, LLC, priority 2017, dated 2023).
Like-named read-outs stand apart in the source and are kept apart here.

What was measured:
[1] = test system: ppMlc (T18/S19) levels in A7R5 cells; test: A7R5 in-cell ELISA (pMLC); assay type: cell-based, Rat; settings: Rattus norvegicus, A7R5, A7R5 cells; for inhibition at 10 µM: 10 μM compound
Outline: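 A7R5 rat aortic smooth muscle cells seeded 24 h, then treated 90 min with a 9-point 2-fold compound dilution series. Fixed cells probed for ppMlc (T18/S19) by colorimetric in-cell ELISA; cellular IC50 from nonlinear regression curve fit.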

[2] = biological target: Recombinant ROCK1 (amino acids 1-535) (Homo sapiens (Human), UniProt Q13464); test: Z′-Lyte kinase assay, ROCK1; assay type: biochemical; settings: for inhibition at 3 µM: 3 μM compound; for inhibition at 3 µM / inhibition at 0.5 µM: read-out: ROCK1 % inh. @ [conc]; for inhibition at 0.5 µM: 0.5 μM compound
Chain of Recombinant ROCK1 (amino acids 1-535) (Q13464 1-535): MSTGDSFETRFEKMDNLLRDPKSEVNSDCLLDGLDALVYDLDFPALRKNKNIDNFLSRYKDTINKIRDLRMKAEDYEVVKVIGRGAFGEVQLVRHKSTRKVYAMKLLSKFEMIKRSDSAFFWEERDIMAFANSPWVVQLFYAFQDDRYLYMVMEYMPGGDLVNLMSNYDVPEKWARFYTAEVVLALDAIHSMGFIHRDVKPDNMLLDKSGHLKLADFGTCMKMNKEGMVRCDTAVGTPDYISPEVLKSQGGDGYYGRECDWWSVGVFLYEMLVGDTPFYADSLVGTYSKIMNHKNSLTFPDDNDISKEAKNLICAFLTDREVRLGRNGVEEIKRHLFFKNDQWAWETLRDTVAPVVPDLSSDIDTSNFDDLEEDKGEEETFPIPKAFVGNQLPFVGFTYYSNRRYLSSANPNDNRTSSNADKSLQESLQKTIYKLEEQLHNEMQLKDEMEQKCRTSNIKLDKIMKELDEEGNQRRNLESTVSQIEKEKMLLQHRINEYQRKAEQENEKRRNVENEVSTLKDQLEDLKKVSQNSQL
Description: Determination of Compound's ROCK Inhibitory Activity In Vitro (Z'Lyte Assay).
Recombinant ROCK1 (amino acids 1-535) and ROCK2 (amino acids 1-552) proteins were purchased from ThermoFisher Scientific. Compound's activities were measured by Z′-lyte kinase kit (ThermoFisher Scientific) and IC50 was calculated
In vitro activities for the compounds were measured with Z′-lyte kinase kit (ThermoFisher Scientific). The percent inhibition rate was calculated by normalizing the kinase activity value obtained with 1 μM compound treatment against DMSO control value and then applied to the formula, [1-(compound/DMSO)]×100%. IC50s were calculated using the nonlinear regression curve fit function of the GraphPad Prism software with kinase activities data measured with 9 points 2-fold serial dilution of compounds treatment. In cell pMLC IC50s were calculated with data obtained from A7R5 cell experiments. A7R5 cells were treated with 9 points 2-fold serial dilution of compounds and ppMlc (T18/S19) levels were determined to calculate cellular IC50 values of the compounds using the nonlinear regression curve fit function of the GraphPad Prism software. NIH3T3 cells stably expressing ACTA2-promoter-driven-luciferase were applied to measure ROCK compounds functional IC50s in cells. Cells were plated in 96 well plates to confluence and treated with 9 points serial dilution of compounds in combination with TGFβ1 for 24 hr. Luciferase activities were measured and compound's IC50s were calculated using the nonlinear regression curve fit function of the GraphPad Prism software.

[3] = biological target: Recombinant ROCK2 (amino acids 1-552) (Homo sapiens (Human), UniProt O75116); test: Z′-Lyte kinase assay, ROCK2; assay type: biochemical; settings: for inhibition at 3 µM: 3 μM compound; for inhibition at 0.5 µM: 0.5 μM compound
Chain of Recombinant ROCK2 (amino acids 1-552) (O75116 1-552): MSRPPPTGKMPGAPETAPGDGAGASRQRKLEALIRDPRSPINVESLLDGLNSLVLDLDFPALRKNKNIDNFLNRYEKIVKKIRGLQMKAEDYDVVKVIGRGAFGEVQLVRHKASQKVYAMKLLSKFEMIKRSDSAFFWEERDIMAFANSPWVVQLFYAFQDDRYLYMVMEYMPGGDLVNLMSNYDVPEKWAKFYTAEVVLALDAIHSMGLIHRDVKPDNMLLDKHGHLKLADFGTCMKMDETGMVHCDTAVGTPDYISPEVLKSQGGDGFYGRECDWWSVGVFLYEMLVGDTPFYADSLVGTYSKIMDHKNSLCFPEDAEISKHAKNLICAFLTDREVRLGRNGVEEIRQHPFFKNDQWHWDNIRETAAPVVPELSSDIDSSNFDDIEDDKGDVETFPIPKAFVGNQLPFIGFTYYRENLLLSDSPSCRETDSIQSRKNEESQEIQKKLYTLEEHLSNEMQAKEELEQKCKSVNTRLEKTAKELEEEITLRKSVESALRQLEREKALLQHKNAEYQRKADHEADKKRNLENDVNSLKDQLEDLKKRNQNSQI
Outline: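 Recombinant human ROCK1 (aa 1-535) or ROCK2 (aa 1-552) activity read by Z′-Lyte kinase assay. Percent inhibition at 1 μM compound was normalized to DMSO control; IC50 from 9-point 2-fold serial dilutions by nonlinear regression.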

[4] = read-out: pMLC % inh A7R5 @ [conc]
[5] = read-out: ROCK2 % inh. @ [conc]
[6] = 9 points 2-fold serial dilution

Cc1cc(Nc2ccc3[nH]ncc3c2)nc(N2CCCNCC2)n1 [Example 5, N-(2-(1,4-diazepan-1-yl)-6-methylpyrimidin-4-yl)-1H-indazol-5-amine]
inhibition at 10 µM [1, 4]: 86% | IC50 ([1]; ppMlc (T18/S19)): 63 nM | inhibition at 3 µM [2]: 98.3% | inhibition at 3 µM [3, 5]: 102% | IC50 [3, 6]: 54 nM

COc1cnc(N2CCCNCC2)nc1Nc1ccc2[nH]ncc2c1 [Example 7, N-(2-(1,4-diazepan-1-yl)-5-methoxypyrimidin-4-yl)-1H-indazol-5-amine]
inhibition at 10 µM [1, 4]: 98.3% | IC50 ([1]; ppMlc (T18/S19)): 460 nM | IC50 [2, 6]: 65 nM | inhibition at 1 µM ([3]; 1 μM compound, read-out: ROCK2 % inh. @ [conc]): 96% | IC50 [3, 6]: 107 nM

c1cc2nc(N3CCCNCC3)nc(Nc3ccc4[nH]ncc4c3)c2s1 [Example 10, 2-(1,4-diazepan-1-yl)-N-(1H-indazol-5-yl)thieno[3,2-d]pyrimidin-4-amine]
inhibition at 10 µM [1, 4]: 90% | IC50 ([1]; ppMlc (T18/S19)): 565 nM | inhibition at 0.5 µM [2]: 94% | inhibition at 0.5 µM [3, 5]: 98% | IC50 [3, 6]: 20 nM

c1cc2[nH]ncc2cc1Nc1nc(N2CCCNCC2)nc2c1COC2 [Example 11, 2-(1,4-diazepan-1-yl)-N-(1H-indazol-5-yl)-5,7-dihydrofuro[3,4-d]pyrimidin-4-amine]
inhibition at 10 µM [1, 4]: 89% | IC50 ([1]; ppMlc (T18/S19)): 1120 nM | inhibition at 0.5 µM [2]: 76% | inhibition at 0.5 µM [3, 5]: 93% | IC50 [3, 6]: 31 nM

c1ccc(C2CN(c3nccc(Nc4ccc(-c5ccncc5)cc4)n3)CCCN2)cc1 (centres unmarked) [Example 18, 2-(3-phenyl-1,4-diazepan-1-yl)-N-(4-(pyridin-4-yl)phenyl)pyrimidin-4-amine]
inhibition at 10 µM [1, 4]: 11% | IC50 [2, 6]: 332 nM | IC50 [3, 6]: 206 nM

c1cc(Nc2ccc3[nH]ncc3c2)nc(N2CCNCC2)n1 [Example 34, N-(2-(piperazin-1-yl)pyrimidin-4-yl)-1H-indazol-5-amine]
IC50 [1]: 393 nM | inhibition at 10 µM [1, 4]: 62.4% | IC50 [2]: 31 nM | inhibition at 3 µM [2]: 102% | IC50 [3]: 29 nM | inhibition at 3 µM [3, 5]: 101%

c1cc(Nc2ccc3[nH]ncc3c2)nc(N2CCCNCC2)n1 [Example 35, N-(2-(1,4-diazepan-1-yl)pyrimidin-4-yl)-1H-indazol-5-amine]
IC50 [1]: 416 nM | inhibition at 10 µM [1, 4]: 68.1% | IC50 [2]: 16 nM | inhibition at 3 µM [2]: 100% | IC50 [3]: 15 nM | inhibition at 3 µM [3, 5]: 98.9%

c1cc2[nH]ncc2cc1Nc1nc(N2CC3CCC(C2)N3)nc2c1COC2 [Example 39, 2-(3,8-diazabicyclo[3.2.1]octan-3-yl)-N-(1H-indazol-5-yl)-5,7-dihydrofuro[3,4-d]pyrimidin-4-amine]
inhibition at 1 µM ([1]; 1 μM compound, read-out: pMLC % inh A7R5 @ [conc]): 6.6% | inhibition at 0.5 µM [2]: 67% | inhibition at 0.5 µM [3, 5]: 64%

CC1CN(c2nccc(Nc3ccc(-c4ccncc4)cc3)n2)CCCN1 (centres unmarked) [Example 43, 2-(3-methyl-1,4-diazepan-1-yl)-N-(4-(pyridin-4-yl)phenyl)pyrimidin-4-amine]
IC50 ([1]; ppMlc (T18/S19)): 730 nM | inhibition at 3 µM [2]: 99% | IC50 [2, 6]: 135 nM | inhibition at 3 µM [3, 5]: 98.8% | IC50 [3, 6]: 120 nM

CC1CCN(c2nccc(Nc3ccc(-c4ccncc4)cc3)n2)CCN1 (centres unmarked) [Example 45, 2-(5-methyl-1,4-diazepan-1-yl)-N-(4-(pyridin-4-yl)phenyl)pyrimidin-4-amine]
IC50 ([1]; ppMlc (T18/S19)): 2120 nM | inhibition at 3 µM [2]: 99% | IC50 [2, 6]: 307 nM | inhibition at 3 µM [3, 5]: 98.8% | IC50 [3, 6]: 649 nM

c1cc2[nH]ncc2cc1Nc1nc(N2C3CCC2CNC3)nc2c1COCC2 [Example 46, 2-(3,8-diazabicyclo[3.2.1]octan-8-yl)-N-(1H-indazol-5-yl)-7,8-dihydro-5H-pyrano[4,3-d]pyrimidin-4-amine]
inhibition at 0.5 µM [2]: 98% | IC50 [3]: 1 nM | inhibition at 0.5 µM [3, 5]: 98%

c1cc(-c2cn[nH]c2)ccc1Nc1nc(N2C3CCC2CNC3)nc2c1COCC2 [Example 243, N-(4-(1H-pyrazol-4-yl)phenyl)-2-(3,8-diazabicyclo[3.2.1]octan-8-yl)-7,8-dihydro-5H-pyrano[4,3-d]pyrimidin-4-amine]
inhibition at 0.5 µM [2]: 67% | IC50 [3]: 56 nM | inhibition at 0.5 µM [3, 5]: 80%

c1cc2c(Nc3ccc4[nH]ncc4c3)nc(N3C4CCC3CNC4)nc2s1 [Example 274, 2-(3,8-diazabicyclo[3.2.1]octan-8-yl)-N-(1H-indazol-5-yl)thieno[2,3-d]pyrimidin-4-amine]
inhibition at 0.5 µM [2]: 101% | IC50 [3]: 0.4 nM | inhibition at 0.5 µM [3, 5]: 99%

c1cc2[nH]ncc2cc1Nc1nc(N2C3CCC2CNC3)nc2c1CNC2 [Example 275, 2-(3,8-diazabicyclo[3.2.1]octan-8-yl)-N-(1H-indazol-5-yl)-6,7-dihydro-5H-pyrrolo[3,4-d]pyrimidin-4-amine]
inhibition at 0.5 µM [2]: 95% | IC50 [3]: 1.2 nM | inhibition at 0.5 µM [3, 5]: 90%

c1cc(-c2cn[nH]c2)ccc1Nc1nc(N2C3CCC2CNC3)nc2c1CNC2 [Example 276, N-(4-(1H-pyrazol-4-yl)phenyl)-2-(3,8-diazabicyclo[3.2.1]octan-8-yl)-6,7-dihydro-5H-pyrrolo[3,4-d]pyrimidin-4-amine]
inhibition at 0.5 µM [2]: 88% | IC50 [3]: 2.3 nM | inhibition at 0.5 µM [3, 5]: 91%

c1cc(-c2cn[nH]c2)ccc1Nc1nc(N2C3CCC2CNC3)nc2c1COC2 [Example 279, N-(4-(1H-pyrazol-4-yl)phenyl)-2-(3,8-diazabicyclo[3.2.1]octan-8-yl)-5,7-dihydrofuro[3,4-d]pyrimidin-4-amine]
inhibition at 0.5 µM [2]: 76% | IC50 [3]: 40 nM | inhibition at 0.5 µM [3, 5]: 85%

c1cc2nc(N3C4CCC3CNC4)nc(Nc3ccc4[nH]ncc4c3)c2s1 [Example 282, 2-(3,8-diazabicyclo[3.2.1]octan-8-yl)-N-(1H-indazol-5-yl)thieno[3,2-d]pyrimidin-4-amine]
inhibition at 0.5 µM [2]: 101% | IC50 [3]: < 0.1 nM | inhibition at 0.5 µM [3, 5]: 99%

CCOC(=O)[C@]12CCNCCC1CN(c1ncc(F)c(Nc3ccc4[nH]ncc4c3)n1)C2 (stereo partly drawn) [Example 322, Ethyl (3αR,8αR)-2-(4-((1H-indazol-5-yl)amino)-5-fluoropyrimidin-2-yl)octahydropyrrolo[3,4-d]azepine-3α(1H)-carboxylate]
inhibition at 0.5 µM [2]: 17% | inhibition at 0.5 µM [3, 5]: 29%

CCOC(=O)[C@]12CCNCCC1CN(c1ncc(Cl)c(Nc3ccc4[nH]ncc4c3)n1)C2 (stereo partly drawn) [Example 323, Ethyl (3αR,8αR)-2-(4-((1H-indazol-5-yl)amino)-5-chloropyrimidin-2-yl)octahydropyrrolo[3,4-d]azepine-3α(1H)-carboxylate]
inhibition at 0.5 µM [2]: 17% | inhibition at 0.5 µM [3, 5]: 29%

CCOOCC12CNCC1(C(F)(F)F)CN(c1ncc(F)c(Nc3ccc4[nH]ncc4c3)n1)C2 (centres unmarked) [Example 328, N-(2-(3a-((ethylperoxy)methyl)-6a-(trifluoromethyl)hexahydropyrrolo[3,4-c]pyrrol-2(1H)-yl)-5-fluoropyrimidin-4-yl)-1H-indazol-5-amine]
inhibition at 0.5 µM [2]: 8% | inhibition at 0.5 µM [3, 5]: 7%

CCOC(=O)C12CNCC1(C(F)(F)F)CN(c1ncc(Cl)c(Nc3ccc4[nH]ncc4c3)n1)C2 (centres unmarked) [Example 338, Ethyl 2-(4-((1H-indazol-5-yl)amino)-5-chloropyrimidin-2-yl)-6a-(trifluoromethyl)hexahydropyrrolo[3,4-c]pyrrole-3a(1H)-carboxylate]
inhibition at 0.5 µM [2]: 3% | inhibition at 0.5 µM [3, 5]: 13%

CCOC(=O)C1NC2CC1CN(c1ncc(F)c(Nc3ccc4[nH]ncc4c3)n1)C2 (centres unmarked) [Example 339, Ethyl 3-(4-((1H-indazol-5-yl)amino)-5-fluoropyrimidin-2-yl)-3,6-diazabicyclo[3.2.1]octane-7-carboxylate]
inhibition at 0.5 µM [2]: 56% | IC50 [3]: 211 nM | inhibition at 0.5 µM [3, 5]: 75%
